Data reported in patent publication US20260232753A1, “COMPOSITION FOR TREATING MACULAR DEGENERATION COMPRISING NOVEL PEPTIDE” (EYEBIOKOREA, INC., priority 2021, published 2026).
Converted amounts (≈) assume the structure as drawn. *1 amine or outer side, *2 acyl side, *3 side chain or, on linkers, in order; H or OH if unused. Where a SMILES comes first, the peptide text is derived from it. Where no end group is shown, it is not given here. [ ]: non-standard residue; d: D form. The star is where a group is joined. Pro(trans-4-NH2) = O=C([C@@H]1C[C@@H](N[*:3])CN1[*:1])[*:2]; Pro(4-methylene) = C=C1CN[C@H](C(=O)O)C1; Pro(cis-4-F) = O=C(O)[C@@H]1C[C@H](F)CN1; Hyp = O=C(O)[C@@H]1C[C@@H](O)CN1; dHyp = O=C(O)[C@H]1C[C@H](O)CN1; Phg = N[C@H](C(=O)O)c1ccccc1; Tle = CC(C)(C)[C@H](N)C(=O)O; Aib = CC(C)(N)C(=O)O; OiPr = CC(C)O*

What was measured:
[1] = test system: choroidal neovascularization (CNV); assay: Inhibition of choroidal neovascularization: fluorescence value (CTF) at the CNV site by FFA, laser-induced CNV model, intravitreal injection; assay type: in vivo, C57BL/6 mice; conditions: ten days after administration; for CTF (corrected total fluorescence) value: laser-induced CNV, 1 μL intravitreal, peptide 10 mg/mL or aflibercept 20 mg/mL, lower CTF = less CNV; for CNV inhibitory efficacy from fluorescence value of the CNV site (in words): intravitreal
Description: (§1) The CNV animal model used in the present invention is a mouse model in which lesions are induced by irradiating a laser to the choroid of C57BL/6 mice using a laser slit system. The laser-induced CNV model, first described in 1979, uses photocoagulation to disturb Bruch's membrane to induce the growth of choroidal neovascularization into the retina area, and it is similar in development to neovascular disease in the human retina, that is, wet macular degeneration (wet AMD), in that neovascularity arises from the choroid. In addition, the laser-induced CNV model was successful in predicting the clinical efficacy of anti-vascular endothelial growth factor (VEGF) treatment for neovascular AMD, and is an animal model used in the development stage of existing therapeutic agents (Gong Y, Li J, Sun Y, Fu Z, Liu C H, Evans L, et al. (2015) Optimization of an Image-Guided Laser-Induced Choroidal Neovascularization Model in Mice. PLOS ONE 10 (7)).
(§2) In order to evaluate the efficacy of the peptide of the present invention to inhibit the choroidal neovascularization (CNV), an experiment was performed as follows.
(§3) The eyes of 7-8 week old C57BL/6 mice were instilled with a mydriatic agent to dilate the pupils, and the mice were anesthetized by intraperitoneal injection of ketamine (50 mg/kg) and rompun (23.32 mg/kg). A slit-lamp laser injection system was used to irradiate the laser to the choroid of each eye of the mouse four times in the 12 o'clock, 3 o'clock, 6 o'clock, and 9 o'clock directions. At this time, the laser irradiation conditions were 532 nm, 80 msec, and 240 mW. Immediately after laser irradiation, 1 μL of each peptide at a concentration of 10 mg/mL or aflibercept at a concentration of 20 mg/mL, which was dissolved in PBS, was injected into the vitreous body using a syringe. Ten days after drug administration, the mice were anesthetized, and 2% fluorescein was administered to the abdominal cavity to stain blood vessels. The retina was photographed 2 to 3 minutes after fluorescein administration. The size and fluorescence value of CNV lesions induced by laser were measured using the ImageJ program, and in order to reduce the differences between subjects, the CTF (corrected total fluorescence) was calculated by removing the background, and the values of each group were compared. The results of all tests are expressed as mean±standard deviation, and significance was verified using one-way ANOVA and Kruskal-wallis test.

[2] = test system: choroidal neovascularization (CNV); assay: Inhibition of choroidal neovascularization: optical coherence tomography, size of CNV lesion, intravitreal injection; assay type: in vivo, C57BL/6 mice; conditions: laser-induced CNV; 1 μL intravitreal, peptide 10 mg/mL or aflibercept 20 mg/mL; ten days after administration; OCT
Description: as §1, §2
as §3, with “and” for “and 2% fluorescein was administered to”, “the” for “the abdominal cavity to stain blood vessels. The retina was photographed 2 to 3 minutes after fluorescein administration. The size and fluorescence value of”, “calculated and expressed as μm^2” for “measured”, “program” for “program, and in order to reduce the differences between subjects, the CTF (corrected total fluorescence) was calculated”, “transmitting an OCT beam for” for “removing the background, and the values of”, “burn.” for “group were compared.”

[3] = Solubility of the peptide in water (Korean Pharmacopoeia method); assay type: physicochemical; conditions: 20±5° C.; for solubility: within 30 minutes
Protocol: In order to evaluate the solubility of the peptide of the present invention, an experiment was performed as follows.
The solubility test was conducted based on the Korean Pharmacopoeia method, and the solubility was determined as the degree to which 0.1 g of peptide was dissolved within 30 minutes when added to 10 mL of water and shaken vigorously for 30 seconds every 5 minutes at 20±5° C.

[4] = Stability of the peptide: content analysis by HPLC in aqueous solution under harsh conditions; assay type: physicochemical; conditions: for Decrease rate: after 7 days; for Initial content: HPLC
Protocol: In order to evaluate the stability of the peptide of the present invention, an experiment was performed as follows.
The stability of the peptide was confirmed through content analysis in an aqueous solution at 40° C., 75% humidity, and harsh conditions, and was analyzed using HPLC under the following conditions. • Analysis column: C18 (4.6 Y 250 mm, 5 μm, YMC Hydrosphere) • Analysis wavelength: ultraviolet absorption spectrophotometer (210 nm) • Injection volume/Flow rate: 10 μL/0.8 mL/min • Column temperature: 45° C. • Mobile phase: 0.1 M phosphate buffer methanol mixture (83:17)

[5] = test system: choroidal neovascularization (CNV); assay: Inhibition of choroidal neovascularization: electroretinography, b-wave amplitude as indicator of retinal function; assay type: in vivo, C57BL/6 mice; conditions: laser-induced CNV; 1 μL intravitreal, peptide 10 mg/mL or aflibercept 20 mg/mL; single white light 0.9 cd·sec/m^2
Description: as §1, §2
The eyes of 7-8 week old C57BL/6 mice were instilled with a mydriatic agent to dilate the pupils, and the mice were anesthetized by intraperitoneal injection of ketamine (50 mg/kg) and rompun (23.32 mg/kg). A slit-lamp laser injection system was used to irradiate the laser to the choroid of each eye of the mouse four times in the 12 o'clock, 3 o'clock, 6 o'clock, and 9 o'clock directions. At this time, the laser irradiation conditions were 532 nm, 80 msec, and 240 mW. Immediately after laser irradiation, 1 μL of each peptide at a concentration of 10 mg/mL or aflibercept at a concentration of 20 mg/mL, which was dissolved in PBS, was injected into the vitreous body using a syringe. For electroretinogram analysis, dark adaptation was performed for more than 12 hours. The mice were subjected to mydriasis in a dark room and anesthetized, and then electroretinography was performed by contacting the ground electrode to the tail, the reference electrode to the head, and the corneal electrode to the cornea. The response values were obtained by stimulating the retina with a single white light of 0.9 cd·sec/m^2 flash intensity, and the amplitude, which is determined from the trough of the a-wave to the peak of the b-wave, was measured and evaluated as an indicator of retinal function. The results of all tests are expressed as mean #standard deviation, and significance was verified using one-way ANOVA and Kruskal-wallis test.

| Compound | CTF (corrected total fluorescence) value [1] | Size of lesion [2] | CNV inhibitory efficacy from fluorescence value of the CNV site (in words) [1] | further results |
| --- | --- | --- | --- | --- |
| 4-methylene-Pro-Gly-Gln-Asp-Gly-Leu-Ala ([Pro(4-methylene)]GQDGLA) [Example 34] | + (+: 300,000 to 800,000) | 8,603 μm^2 |  |  |
| CC(C)C[C@H](NC(=O)CNC(=O)[C@H](CCC(=O)O)NC(=O)[C@H](CCC(N)=O)NC(=O)CNC(=O)[C@@H]1C[C@@H](O)CN1)C(=O)N[C@@H](C)C(=O)O [Example 40, Hyp-Gly-Gln-Glu-Gly-Leu-Ala] (H-[Hyp]GQEGLA-OH; N-terminus and C-terminus assumed) |  |  |  | solubility [3]: ≥ 330 mg/mL |
| CC(C)C[C@H](NC(=O)C(C)(C)NC(=O)[C@H](CCC(=O)O)NC(=O)[C@H](CCC(N)=O)NC(=O)CNC(=O)[C@@H]1C[C@@H](O)CN1)C(=O)N[C@@H](C)C(=O)O [Example 43, Hyp-Gly-Gln-Glu-Aib-Leu-Ala] (H-[Hyp]GQE[Aib]LA-OH; N-terminus and C-terminus assumed) |  |  |  | Stability (in words) ([4]; 40° C., 75% humidity, 7 days): most excellent stability; Solubility (in words) [3]: most excellent solubility; solubility [3]: ≥ 500 mg/mL |
| CC(C)C[C@H](NC(=O)[C@@H](NC(=O)[C@H](CCC(=O)O)NC(=O)[C@H](CCC(N)=O)NC(=O)CNC(=O)[C@@H]1C[C@@H](O)CN1)C(C)(C)C)C(=O)N[C@@H](C)C(=O)O [Example 44, Hyp-Gly-Gln-Glu-tert-Leu-Leu-Ala] (H-[Hyp]GQE[Tle]LA-OH; N-terminus and C-terminus assumed) |  |  |  | solubility [3]: 100 mg/mL (≈ 135 mM) |
| D-Hyp-Gly-Gln-Asp-Gly-Leu ([dHyp]GQDGL) [Example 13] | ++ (++: 200,000 to 300,000) | 6,395 μm^2 | very excellent inhibitory efficacy |  |
| Hyp-Gly-Gln-Asp-Ala ([Hyp]GQDA) [Example 3] | + (+: 300,000 to 800,000) | 6,491 μm^2 |  |  |
| Hyp-Gly-Gln-Asp-Gly-Leu-Ala-IPE ([Hyp]GQDGLA-OiPr) [Example 17] | ++ (++: 200,000 to 300,000) | 5,978 μm^2 | very excellent inhibitory efficacy |  |
| Hyp-Gly-Gln-Asp-Leu-Leu-Ala ([Hyp]GQDLLA) [Example 15] | ++ (++: 200,000 to 300,000) | 6,672 μm^2 | very excellent inhibitory efficacy |  |
| Hyp-Gly-Gln-Asp-Val ([Hyp]GQDV) [Example 1] | +++ (+++: 100,000 to 200,000) | 5,636 μm^2 | very excellent inhibitory efficacy |  |
| Hyp-Gly-Gln-Asp-Val-Leu ([Hyp]GQDVL) [Example 7] | ++ (++: 200,000 to 300,000) | 6,046 μm^2 | very excellent inhibitory efficacy |  |
| Hyp-Gly-Gln-Asp-Val-Leu-Ala ([Hyp]GQDVLA) [Example 14] | ++ (++: 200,000 to 300,000) | 5,407 μm^2 | very excellent inhibitory efficacy |  |
| Hyp-Gly-Gln-Glu-Leu-Leu-Ala ([Hyp]GQELLA) [Example 41] | + (+: 300,000 to 800,000) | 4,960 μm^2 |  | b-wave amplitude [5]: 510 μV; Content after 7 days ([4]; 40° C., 75% humidity, 7 days): 97.555%; Decrease rate ([4]; 40° C., 75% humidity): 0.600%; Initial content [4]: 98.155% |
| Hyp-Gly-Gln-Glu-Val ([Hyp]GQEV) [Example 37] | + (+: 300,000 to 800,000) | 5,775 μm^2 |  | b-wave amplitude [5]: 400 μV |
| Hyp-Gly-Gln-Glu-Val-Leu-Ala ([Hyp]GQEVLA) [Example 42] | + (+: 300,000 to 800,000) | 6,102 μm^2 |  | b-wave amplitude [5]: 380 μV |
| Hyp-Gly-Gln-Glu-phenyl-Gly-Leu-Ala ([Hyp]GQE[Phg]LA) [Example 45] | + (+: 300,000 to 800,000) |  |  | Content after 7 days ([4]; 40° C., 75% humidity, 7 days): 98.147%; Decrease rate ([4]; 40° C., 75% humidity): 0.439%; Initial content [4]: 98.586% |
| cis-4F-Pro-Gly-Gln-Asp-Gly ([Pro(cis-4-F)]GQDG) [Example 22] | + (+: 300,000 to 800,000) |  |  |  |
| cis-4F-Pro-Gly-Gln-Asp-Gly-Leu ([Pro(cis-4-F)]GQDGL) [Example 27] | +++ (+++: 100,000 to 200,000) |  | very excellent inhibitory efficacy |  |
| cis-4F-Pro-Gly-Gln-Asp-Gly-Leu-Ala ([Pro(cis-4-F)]GQDGLA) [Example 33] | + (+: 300,000 to 800,000) |  |  |  |
| trans-4NH2-Pro-Gly-Gln-Asp-Gly ([Pro(trans-4-NH2)]GQDG) [Example 23] | ++ (++: 200,000 to 300,000) |  | very excellent inhibitory efficacy |  |
| trans-4NH2-Pro-Gly-Gln-Asp-Gly-Leu ([Pro(trans-4-NH2)]GQDGL) [Example 28] | + (+: 300,000 to 800,000) |  |  |  |
